In data set [1] the target is Human immunodeficiency virus type 1 reverse transcriptase (Human immunodeficiency virus 1, UniProt Q72547). The data set can be described thus: Inhibition of wild type HIV1 reverse transcriptase RNA-dependent DNA polymerase activity using poly(rA)/oligo(dT)10:1 and [3H]-dTTP substrate.
For data set [2], the system named is Human immunodeficiency virus 1. It counts as functional, organism-based. Particulars: Human immunodeficiency virus 1, MT4, 120 h.
For data set [3], the system named is Human immunodeficiency virus 1. The data set is described as follows: microbe, parasite or virus in culture. The conditions noted are these: Human immunodeficiency virus 1, MT4, 120 h.
Description: Antiviral activity against HIV1 containing reverse transcriptase Y188L mutant infected in human MT4 cells assessed as inhibition of virus-induced cytopathicity measured 5 days post infection by MTT assay
The nature of the next data set: in vitro. The conditions noted are these: human.
The nature of data set [4]: Cytotoxicity against mock-infected human MT4 cells measured after 5 days by MTT assay. It is filed as cell-based. In general terms: Tetrazolium assays rely on reduction of a dye to a coloured formazan, in cell work by metabolically active cells.
The target of data set [5] is Human immunodeficiency virus type 1 reverse transcriptase (Human immunodeficiency virus 1, UniProt Q72547, L100I). The data set is described as follows: Inhibition of HIV1 reverse transcriptase L100I mutant RNA-dependent DNA polymerase activity using poly(rA)/oligo(dT)10:1 and [3H]-dTTP substrate.
The subject of data set [6] is Human immunodeficiency virus 1. The data set can be described thus: Antiviral activity against HIV1 containing reverse transcriptase K103N mutant infected in human MT4 cells assessed as inhibition of virus-induced cytopathicity measured 5 days post infection by MTT assay. It counts as functional, organism-based. The conditions noted are these: Human immunodeficiency virus 1, MT4, 120 h.

Data set [7] addresses Human immunodeficiency virus type 1 reverse transcriptase (Human immunodeficiency virus 1, UniProt Q72547, K103N). The data set is described as follows: Inhibition of HIV1 reverse transcriptase K103N mutant RNA-dependent DNA polymerase activity using poly(rA)/oligo(dT)10:1 and [3H]-dTTP substrate.
Data set [8] deals with Human immunodeficiency virus 1. The data set can be described thus: Antiviral activity against HIV1 NL4-3 infected in human MT4 cells assessed as inhibition of virus-induced cytopathicity measured 5 days post infection by MTT assay. Particulars: Human immunodeficiency virus 1, NL4-3, MT4, 120 h. It counts as functional, organism-based. (Protection from cytopathic effect is a common read-out in antiviral testing.)

The subject of data set [9] is Human immunodeficiency virus 1. It is filed as functional, organism-based. Particulars: Human immunodeficiency virus 1, IRLL98, MT4, 120 h.
The subject of data set [10] is Human immunodeficiency virus 1. The data set is described as follows: microbe, parasite or virus in culture. The conditions noted are these: Human immunodeficiency virus 1, clade D (UG270).
Description: Antiviral activity against HIV1 clade D (UG270) infected in human PBMCs assessed as inhibition of p24 antigen production by ELISA
Data set [11] concerns Human immunodeficiency virus 1. The data set can be described thus: microbe, parasite or virus in culture. The conditions noted are these: Human immunodeficiency virus 1, clade A/E (ID12).
Description: Antiviral activity against HIV1 clade A/E (ID12) infected in human PBMCs assessed as inhibition of p24 antigen production by ELISA
Data set [12] concerns Human immunodeficiency virus 1. The data set can be described thus: microbe, parasite or virus in culture. Particulars: Human immunodeficiency virus 1, clade A (UG273).
Description: Antiviral activity against HIV1 clade A (UG273) infected in human PBMCs assessed as inhibition of p24 antigen production by ELISA
In data set [13] the test system is Human immunodeficiency virus 1. The data set can be described thus: microbe, parasite or virus in culture. The conditions noted are these: Human immunodeficiency virus 1, clade G (BCF-DIOUM).
Description: Antiviral activity against HIV1 clade G (BCF-DIOUM) infected in human PBMCs assessed as inhibition of p24 antigen production by ELISA
Data set [14] has as its system Human immunodeficiency virus 2. The data set can be described thus: Antiviral activity against HIV2 infected in human PBMCs assessed as inhibition of p24 antigen production by ELISA. It counts as functional, organism-based. (ELISA stands for enzyme-linked immunosorbent assay.)
In data set [15] the test system is Human immunodeficiency virus 1. The data set is described as follows: Antiviral activity against HIV1 NL4-3 infected in human PBMCs assessed as inhibition of p24 antigen production by ELISA. It is filed as functional, organism-based. The conditions noted are these: Human immunodeficiency virus 1, NL4-3.
The subject of data set [16] is Human immunodeficiency virus 1. The data set can be described thus: Potency index, ratio of EC50 for Efavirenz to EC50 for compound against HIV1 containing reverse transcriptase K103N mutant infected in human MT4 cells assessed as inhibition of virus-induced cytopathicity measured 5 days post infection by MTT assay. It counts as functional.
The subject of data set [17] is Human immunodeficiency virus 1. The data set is described as follows: microbe, parasite or virus in culture. The conditions noted are these: Human immunodeficiency virus 1, clade C (DJ259).
Description: Antiviral activity against HIV1 clade C (DJ259) infected in human PBMCs assessed as inhibition of p24 antigen production by ELISA
Data set [18] concerns Human immunodeficiency virus 1. The data set is described as follows: microbe, parasite or virus in culture. Particulars: Human immunodeficiency virus 1, clade F (BZ162).
Description: Antiviral activity against HIV1 clade F (BZ162) infected in human PBMCs assessed as inhibition of p24 antigen production by ELISA
Data set [19] deals with Human immunodeficiency virus 1. The data set can be described thus: microbe, parasite or virus in culture. Particulars: Human immunodeficiency virus 1, clade C (SM145).
Description: Antiviral activity against HIV1 clade C (SM145) infected in human PBMCs assessed as inhibition of p24 antigen production by ELISA
Data set [20] concerns Human immunodeficiency virus 1. The data set can be described thus: microbe, parasite or virus in culture. The conditions noted are these: Human immunodeficiency virus 1, clade B (BaL).
Description: Antiviral activity against HIV1 clade B (BaL) infected in human PBMCs assessed as inhibition of p24 antigen production by ELISA

Results on 16 compounds are retold here after ChEMBL document CHEMBL2163206, “New nitrogen containing substituents at the indole-2-carboxamide yield high potent and broad spectrum indolylarylsulfone HIV-1 non-nucleoside reverse transcriptase inhibitors” (J Med Chem, 2012).

SMILES strings stand for the structures. pEC50, pIC50: −log10 of the molar value.

Description for in vitro: Selectivity index, ratio of CC50 for mock-infected human MT4 cells to EC50 for HIV1 NL4-3 infected in human MT4 cells

In general, pIC50 refers to the negative decadic logarithm of the IC50, by convention in mol/L. By pEC50 is commonly meant the negative decadic logarithm of the EC50, by convention in mol/L. A word on the CC50: it is the concentration at which the toxic effect on the cells reaches its halfway point. A lower CC50 goes with greater toxicity to the cells. Regarding `Cc1cc(C)cc(S(=O)(=O)c2c(C(=O)Nc3cccc(C#N)c3)[nH]c3ccc(Cl)cc23)c1`, the pIC50 in data set [1] was 6.30; in data set [5], 6.54; in data set [7], less than 7.40. Also, the pEC50 is 7.36 in data set [2], 5.86 in [3], 7.70 in data set [6] and 8.66 in data set [8]. Besides, in “in vitro”, the selectivity ratio was more than 4900. Further, the CC50 at 120 h in data set [4] was more than 10800 nM.

Consider `Cc1cc(C)cc(S(=O)(=O)c2c(C(=O)NCCc3ccncc3)[nH]c3ccc(Cl)cc23)c1`, for which the selectivity ratio in the data set “in vitro” was more than 5340. For the same compound, in [4], the 50% cytotoxic concentration (CC50) at 120 h is more than 10700 nM. The negative-log EC50 (pEC50) in data set [8] was 8.70.

In the case of `Cc1ccnc2c1NC(=O)c1cccnc1N2C1CC1` [NEVIRAPINE], the pEC50 in data set [2] was less than 5.43; in data set [3], less than 5.43; in data set [9], less than 4.72; in data set [6], less than 5.43; in data set [8], 5.82. The 50% cytotoxic concentration (CC50) at 120 h in data set [4] was more than 18800 nM.

Regarding `Cc1cc(C)cc(S(=O)(=O)c2c(C(=O)NC(C)C(N)=O)[nH]c3ccc(Cl)cc23)c1` (racemic), the selectivity ratio in the data set “in vitro” is 3020. This compound also yielded a CC50 at 120 h in data set [4] of 6040 nM. Besides, the negative-log EC50 (pEC50) in data set [8] is 8.70.

Consider `Cc1cc(C)cc(S(=O)(=O)c2c(C(=O)NCc3ccncc3)[nH]c3ccc(Cl)cc23)c1`, for which the negative logarithm of the IC50 (pIC50) was 7.68 in data set [1], 7.96 in [5] and 7.35 in data set [7]. Further, the negative logarithm of the EC50 (pEC50) is 8.66 in [2]; 7.66 in [3]; 9.40 in data set [10]; 9.22 in [11]; 9.22 in [12]; 8.77 in [13]. Besides, the pEC50 in data set [14] was less than 6.70; in [15], 9.40; in data set [9], 9.00; in data set [17] it was 9.40; in data set [6] it was 8.06; in data set [18], 9.22. The pEC50 was 9.52 in data set [19], 8.70 in data set [8] and 10.00 in data set [20]. Moreover, the selectivity ratio in “in vitro” was more than 5510. The same compound gave a CC50 at 120 h in data set [4] of more than 11000 nM. Further, the “Ratio EC50” value in [16] was found to be 8.

In the case of `Cc1cn([C@H]2C[C@H](N=[N+]=[N-])[C@@H](CO)O2)c(=O)[nH]c1=O` [ZIDOVUDINE], the pEC50 is 8.80 in data set [2]; 7.93 in data set [3]; 8.42 in [9]; 7.81 in data set [6]; 8.11 in [8]. Further, in “in vitro”, the selectivity ratio was more than 2400. Further, the CC50 at 120 h in data set [4] is more than 18700 nM.

On to `Cc1cc(C)cc(S(=O)(=O)c2c(C(=O)NCCc3cccnc3)[nH]c3ccc(Cl)cc23)c1`, for which the figures for the pIC50 in data set [1], in [5] and in data set [7] were 7.40, 7.62 and 6.79, respectively. Further, the pEC50 in [2] was 8.20; in [3] it was 6.30; in data set [6], 7.56; in data set [8] it was 8.68. Moreover, in the data set “in vitro”, the selectivity ratio is more than 5090. The 50% cytotoxic concentration (CC50) at 120 h in data set [4] is more than 10700 nM.

Take `Cc1nnc(C(C)C)n1[C@H]1C[C@H]2CC[C@@H](C1)N2CC[C@H](NC(=O)C1CCC(F)(F)CC1)c1ccccc1` (relative stereo) [MARAVIROC]: the pEC50 in data set [10], in data set [11], in data set [12], in data set [13], in [17] and in data set [18] was 9.00 throughout. The pEC50 in [19] and in data set [20] was 9.00 throughout.

For `O=C1Nc2ccc(Cl)cc2[C@@](C#CC2CC2)(C(F)(F)F)O1` [EFAVIRENZ], the negative logarithm of the EC50 (pEC50) in data set [2] was 6.80; in [9], 6.01; in data set [6] it was 7.16; in data set [8], 8.20. In data set [4], this compound registered a CC50 at 120 h of more than 15800 nM.

On to `Cc1cc(C)cc(S(=O)(=O)c2c(C(=O)NCc3ccc(C#N)cc3)[nH]c3ccc(Cl)cc23)c1`, for which the figures for the pIC50 in data set [1], in data set [5] and in [7] were less than 8.00, less than 8.40 and less than 8.00, respectively. Also, the negative-log EC50 (pEC50) in [2] is 7.49; in [3], less than 4.97; in data set [6], 6.93; in data set [8] it was 8.82. The selectivity ratio in “in vitro” was more than 6970. The compound also came in with a CC50 at 120 h in data set [4] of more than 10500 nM.

Consider `Cc1cc(C)cc(S(=O)(=O)c2c(C(=O)NCc3cccnc3)[nH]c3ccc(Cl)cc23)c1`, for which the values for the pIC50 in data set [1], in data set [5] and in data set [7] were 7.70, 8.10 and 7.49, respectively. Moreover, the negative-log EC50 (pEC50) in data set [2] was 8.06; in [3] it was 7.36; in [6], 7.42; in data set [8] it was 8.66. In addition, the selectivity ratio in “in vitro” is more than 5010. Also, the CC50 at 120 h in data set [4] is more than 11000 nM.

For `Cc1cc(C)cc(S(=O)(=O)c2c(C(=O)Nc3ccc(C#N)cc3)[nH]c3ccc(Cl)cc23)c1`, in “in vitro”, the selectivity ratio was more than 980. Besides, the CC50 at 120 h in data set [4] is more than 10800 nM. Besides, in data set [8], the pEC50 is 7.96.

For `Cc1cc(C)cc(S(=O)(=O)c2c(C(=O)NCc3ccnc4ccccc34)[nH]c3ccc(Cl)cc23)c1`, the selectivity ratio in the data set “in vitro” is more than 827. This compound also yielded a CC50 at 120 h in data set [4] of more than 9920 nM. The pEC50 in data set [8] was 7.92.

In the case of `Cc1cc(C)cc(S(=O)(=O)c2c(C(=O)Nc3ccccc3C#N)[nH]c3ccc(Cl)cc23)c1`, the selectivity ratio in “in vitro” was more than 5390. This compound yielded a cytotoxic concentration (CC50) at 120 h in data set [4] of more than 10800 nM. For the same compound, the pEC50 in data set [8] was 8.70.

For `Cc1cc(C)cc(S(=O)(=O)c2c(C(=O)NCCc3ccccn3)[nH]c3ccc(Cl)cc23)c1`, the selectivity ratio in “in vitro” was more than 5340. In data set [4], this compound came in with a CC50 at 120 h of more than 10700 nM. The pEC50 in data set [8] was 8.70.

In the case of `Cc1cc(C)cc(S(=O)(=O)c2c(C(=O)NCc3ccccn3)[nH]c3ccc(Cl)cc23)c1`, the selectivity ratio in “in vitro” was more than 5510. The compound further gave a CC50 at 120 h in data set [4] of more than 11000 nM. The negative logarithm of the EC50 (pEC50) in data set [8] is 8.70.
